Data: article PMC8579695, “The Stringent Response Inhibits 70S Ribosome Formation in Staphylococcus aureus by Impeding GTPase-Ribosome Interactions” (mBio, 2021)

Test system: RA-GTPases RsgA, RbgA, Era, and HflX
Assay: DRaCALA binding and competition assays across the four RA-GTPases
Set-up: species or system Staphylococcus aureus
Details: 100 μM cold competitor
Description: FIG 1 Nucleotide binding characteristics of RA-GTPases. (A) Schematic representation of the domain structure of Era, RsgA, RbgA, and HflX from S. aureus. The conserved GTPase domain (G domain) is colored in green, and accessory domains are shown. (B) Determination of binding affinities and Kd values for ^32P-labeled GTP, GDP, ppGpp, and pppGpp with purified recombinant 6×His-tagged RbgA using DRaCALA, as previously described ([36]). Each point is the mean average of at least three technical replicates, and error bars indicate standard deviations. (C) Binding assay (DRaCALA) of recombinant RbgA binding to ^32P-labeled GTP, ppGpp, and pppGpp in the presence of an excess of cold competitor (GTP, GDP, ppGpp, pppGpp, or ATP). All experiments were carried out in triplicate, with error bars representing standard deviations. […]
Supplementary file : FIG S2 Examination of the binding of GDP, ppGpp, GTP, and pppGpp to RA-GTPases by DRaCALA. […] Kd values were determined from the binding curves as previously described ([36]). […]
Structural data places (p)ppGpp within the GTP-binding site of the RA-GTPase RbgA ([6]), indicating a competitive mode of inhibition. […] Based on our measured affinities (Table 1), we speculate that both GDP and ppGpp will outcompete other nucleotides for occupancy of the binding site. […]

Nc1nc2c(ncn2[C@@H]2O[C@H](COP(=O)(O)OP(=O)(O)O)[C@@H](OP(=O)(O)OP(=O)(O)O)[C@H]2O)c(=O)[nH]1 [ppGpp]
competition of cold unlabeled nucleotide with 32P-labeled GTP, ppGpp, pppGpp: competing more effectively
